Assays:
[1] = Octanol/water partition coefficient, shake-flask method and UV/Vis; settings: octanol/water, 21 °C
Experimental: Octanol/water partition coefficients (log Pow ). Partition coefficients (P ow; IUPAC: K D partition constant[53]), defined as P ow=corg/caq, where corg and caq are molar concentrations of the selected compound in the organic and aqueous phase, respectively, were determined by the shake‐flask method and UV/Vis measurements.[[16a], [54]] Deionized water and octan‐1‐ol were vigorously stirred for 24 h, to enable saturation of both phases, then separated by centrifugation. A stock solution of the selected Fe compound (ca. 2 mg) was prepared by first adding acetone (50 μL, to help solubilization), followed by water‐saturated octanol (2.5 mL). The solution was diluted with water‐saturated octanol (ca. 1 : 3 v/v ratio, cFe2 ≈10^−4 M, so that 1.5≤A≤2.0 at λ max) and its UV/Vis spectrum was recorded ( A0/org ). An aliquot of the solution (V org=1.2 mL) was transferred into a test tube and octanol‐saturated water (V org=V aq=1.2 mL) was added. The mixture was vigorously stirred for 30 min at 21 °C then centrifuged (RCF 805, 5 min; Hettich EBA 8G). The UV/Vis spectrum of the organic phase was recorded ( Af/org ) and the partition coefficient was calculated as P ow= Af/org /( A0/org g− Af/org ) where A0/org and Af/org are the absorbance in the organic phase before and after partition with the aqueous phase, respectively.[53] For [2B]BF4, [2C]Cl and [3F]CF3SO3 an inverse procedure was followed, starting from a solution of the compound in octanol‐saturated water. The partition coefficient was calculated as P ow=( A0/aq − Af/aq )/ Af/aq where A0/aq and Af/aq are the absorbance in the aqueous phase before and after partition with the organic phase, respectively.

[2] = Stability in D2O, D2O/CD3OD and DMSO-d6/D2O at 37 °C by 1H NMR; format: physicochemical
Experimental: A detailed study on the behaviour of a selection of the diiron complexes in aqueous media was undertaken. Experimental procedures are provided in the Experimental Section and in the Supporting Information, with data collected in Tables 3, S3 and S4. […] The octanol/water partition coefficients (log P ow) were measured by a UV/Vis method and fall in between 0 and −1, reflecting an amphiphilic or slightly hydrophilic character. […] Conversely, those complexes with aromatic groups (i. e., 1H‐indol‐6‐yl, 2‐naphthyl and bis‐benzyl in [2A]^+, [3G]^+, [4G]^+ and [5H]^+) are less soluble in water and display increased affinity for n‐octanol (log P ow≈0). The diiron compounds are inert in aqueous solution at room temperature, and undergo a slow degradation at 37 °C. Under such conditions, a variable amount (50 to 86 %; Table S3) of the starting material was detected by ^1H NMR in D2O or D2O/CD3OD mixtures after 72 h.[33] During this time, the precipitation of a brown solid was observed, which in one case (from a [2C]CF3SO3 solution) was separated and identified as γ‐Fe2O3 by Raman analysis. In addition, headspace GC analyses performed on 5 % MeOH aqueous solutions of the compounds maintained at 37 °C allowed the identification and quantitation of the carbon monoxide released over a 48 h period (Table S4). These facts indicate that the thermal degradation process in aqueous solution leads to the progressive disassembly of the organometallic scaffold.[16] The presumed, controlled release of the iron centres (converted to iron oxide, see above) and carbon monoxide are two aspects that deserve attention with reference to the biological activity: note that the decay of ferrocene drug candidates into Fe^II ions was previously associated to their cytotoxicity,[34] while the activity of various iron carbonyl complexes was correlated to CO dissociation in the physiological media.[35]
Stability in water (D2O) and cell culture medium. The procedures are described in the Supporting Information, and data are collected in Table S3.
Table S3. Stability of diiron complexes in D2O, D2O/CD3OD, DMSO-d6/D2O and cell culture medium (DMEM-
d/CD3OD) solution at 37 °C calculated by 1H NMR (Me2SO2 internal standard).
% starting material (72 h) % starting material
Compound D O D O/CD OD DMSO-d /D O DMEM-d
[a] X = I for the stability in D 2O, X = CF3SO3 for the stability in cell culture medium. [b] Stability in D 2O and […]

[3] = system: 3D cell spheroids of human ovarian (2008) cancer cells; test: Acid phosphatase (APH) assay, 3D spheroid culture; format: cell-based; settings: 2008 spheroids, 72 h, APH test
From the text: (§1) The remarkable cell‐killing effect observed in 2D cultured cells prompted us to evaluate the in vitro antitumor activity of the complexes on 3D cell cultures. Differently from 2D monolayer culture, 3D spheroid cell culture systems comprise cancer cells in various cell growth stages. Consequently, the multicellular cancer spheroid model is recognized to better reflect the tumour mass in vivo regarding drug permeation, cell interactions, gene expression, hypoxia and nutrient gradients with respect to monolayer cell cultures, making 3D models more predictive than conventional 2D monolayer cultures in screening antitumor drugs.[38] Table 6 summarizes the IC50 values obtained after treatment of 3D cell spheroids of human ovarian (2008) and pancreatic (PSN‐1) cancer cells with the diiron complexes and cisplatin.
(§2) Spheroid cultures. Spheroid cultures were obtained by seeding 2.5×10^3 cells/well in round bottom non‐tissue culture treated 96 well‐plate (Greiner Bio‐one, Kremsmünster, Austria) in phenol red free RPMI‐1640 medium (Sigma Chemical Co.), containing 10 % FCS and supplemented with 20 % methyl cellulose stock solution.
(§3) Acid phosphatase (APH) assay. An APH modified assay was used for determining cell viability in 3D spheroids, as previously described.[58] IC50 values were calculated with a four‐parameter logistic (4‐PL) model. All the values are the means ± SD of not less than four independent experiments.

[4] = system: 3D cell spheroids of human pancreatic (PSN‐1) cancer cells; test: Acid phosphatase (APH) assay, 3D spheroid culture; format: cell-based; settings: PSN‐1 spheroids, 72 h, APH test
From the text: as §1, §2, §3

[5] = Solubility pattern of the isolated compound (qualitative); format: physicochemical; settings: isolated solid

Substance | Log P ow [1] | Log P ow ([1]; listed as [5H]^+) | % starting material (72 h) ([2]; D2O) | % starting material (72 h) ([2]; D2O/CD3OD 5:4 v/v) | % starting material (72 h) ([2]; DMSO-d6/D2O 1:1 v/v) | IC50 [3] | IC50 [4] | Solubility in water (qualitative) [5] | IC50±SD (μM) [3] | IC50±SD (μM) [4] | Log P ow ([1]; listed as [2A]^+) | % starting material (72 h) ([2]; D2O/CD3OD 2:1 v/v) | Log P ow ([1]; listed as [4G]^+) | % starting material (72 h) ([2]; DMSO-d6/D2O 5:3 v/v)
[Fe2Cp2(CO)2(μ‐CO){μ‐CNBn2}]X [[5H]CF3SO3] | 0.2±0.02 | ≈ 0 | ca. 50% | 65% | 89% | 73.2 ± 6.2 µM | 86.2 ± 6.4 µM | poorly soluble | – | – | – | – | – | –
[Fe2Cp2(CO)2(μ‐CO){μ‐CNMe(C6H11)}]X [[2C]CF3SO3] | −0.46±0.02 | – | 75% | – | – | 66.4 ± 8.6 µM | 78.2 ± 9.1 µM | less soluble | – | – | – | – | – | –
[Fe2Cp2(CO)2(μ‐CO){μ‐CNMe(4‐C6H4OMe)}]CF3SO3 [[2D]CF3SO3] | −0.25±0.04 | – | 86% | – | – | 42.8 ± 4.2 µM | 53.7 ± 6.1 µM | soluble | – | – | – | – | – | –
[Fe2Cp2(CO)2(μ‐CO){μ‐CNMe(CH2CHCH2)}]X [[3F]CF3SO3] | −1.01±0.02 | – | – | – | – | > 100 µM | > 100 µM | soluble | ineffective | ineffective | – | – | – | –
[Fe2Cp2(CO)2(μ‐CO){μ‐CNMe(1H‐indol‐6‐yl)}]CF3SO3 [[2A]CF3SO3] | 0.0±0.1 | – | – | – | 89% | > 100 µM | > 100 µM | insoluble | – | – | ≈ 0 | 55% | – | –
[Fe2Cp2(CO)2(μ‐CO){μ‐CNEt(2‐naphthyl)}]BF4 [[4G]BF4] | 0.1±0.1 | – | – | 51% | – | 58.9 ± 4.8 µM | 77.4 ± 8.4 µM | insoluble | – | – | – | – | ≈ 0 | 42%
[Fe2Cp2(CO)2(μ‐CO){μ‐CNMe(CH2PO3Et2)}]X [[2B]BF4] | – | – | 85% | – | – | > 100 µM | > 100 µM | soluble | – | – | – | 81% | – | –

Reference: PMC8362065, “Easily Available, Amphiphilic Diiron Cyclopentadienyl Complexes Exhibit in Vitro Anticancer Activity in 2D and 3D Human Cancer Cells through Redox Modulation Triggered by CO Release” (Chemistry (Weinheim an Der Bergstrasse, Germany), 2021)
